Laboratory results taken from US20250248970A1, “NOVEL SUBSTITUTED FLUORINATED N-PROPYL-PYRROLIDINE COMPOUNDS, PROCESSES FOR THEIR PREPARATION AND THERAPEUTIC USES THEREOF” (SANOFI, priority 2022, published 2025).

Tests used:
[1] = biological target: T1, ERα (Homo sapiens, UniProt P03372); assay: Estrogen receptor degradation activity (breast cancer cell ERα in cell western assay); format: cell-based; details: MCF7 cells, 0.3 μM, 4 hours, % of ERα levels decrease relative to fulvestrant
T1 construct: host or cells: MCF7
T1 sequence (P03372 1-595): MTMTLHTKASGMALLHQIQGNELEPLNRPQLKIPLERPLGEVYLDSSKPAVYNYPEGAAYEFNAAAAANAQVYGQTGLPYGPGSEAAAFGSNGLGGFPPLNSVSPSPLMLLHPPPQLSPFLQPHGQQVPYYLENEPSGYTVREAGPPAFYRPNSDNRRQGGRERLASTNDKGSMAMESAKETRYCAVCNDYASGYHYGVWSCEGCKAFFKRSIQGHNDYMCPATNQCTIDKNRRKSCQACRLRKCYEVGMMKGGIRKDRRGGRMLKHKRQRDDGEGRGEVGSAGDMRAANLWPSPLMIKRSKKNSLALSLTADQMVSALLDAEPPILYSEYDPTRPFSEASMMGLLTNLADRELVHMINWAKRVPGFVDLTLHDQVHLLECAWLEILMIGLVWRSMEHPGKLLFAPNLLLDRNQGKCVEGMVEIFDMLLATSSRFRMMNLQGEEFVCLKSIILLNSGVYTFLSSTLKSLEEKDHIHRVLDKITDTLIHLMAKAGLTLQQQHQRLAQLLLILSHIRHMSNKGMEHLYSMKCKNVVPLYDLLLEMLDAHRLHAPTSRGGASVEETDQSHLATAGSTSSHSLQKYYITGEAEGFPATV
Description: Said test involves measuring the in vitro degradation activity of the compounds of the Table 1a.
The measurements of the degradation activities were made using a breast cancer cell ERα in cell western assay as described hereunder.
MCF7 cells (ATCC) were seeded in 384 wells microplate (collagen coated) at a concentration of 10000 cells/30 μL per well in red phenol free MEM alpha medium (invitrogen) containing 5% charcoal dextran striped FBS. The following day, 9 points serial 1:5 dilution of each compound was added to the cells in 2.5p L at final concentrations ranging from 0.3-0.0000018 μM (in table 2), or 0.1 μM for fulvestrant (using as positive control). At 4 hours post compound addition the cells were fixed by adding 25 μL of formalin (final concentration 5% formalin containing 0.1% triton) for 10 minutes at room temperature and then washed twice with PBS. Then, 50 μL of LI-COR blocking buffer containing 0.1% Triton was added to plate for 30 minutes at room temperature. LI-COR blocking buffer was removed and cells were incubated overnight at cold room with 50 μL anti-ER rabbit monoclonal antibody (Thermo scientific MA1-39540) diluted at 1:1000 in LI-COR blocking buffer containing 0.1% tween-20. Wells which were treated with blocking buffer but no antibody were used as background control. Wells were washed twice with PBS (0.1% tween-20) and incubated at 37° C. for 60 minutes in LI-COR (0.1% tween-20) containing goat anti-rabbit antibody Alexa 488 (1:1000) and Syto-64 a DNA dye (2 μM final concentration). Cells were then washed 3 times in PBS and scanned in ACUMEN explorer (TTP-Labtech). Integrated intensities in the green fluorescence and red fluorescence were measured to determine the levels of ERα and DNA respectively.
The degradation activity with respect to estrogen receptors in this test is given by the concentration which degrades 50% of the estrogen receptor (or IC50) in nM.
The % of ERα levels decrease were determined as follows: % inhibition=100*(1−(sample−fulvestrant: DMSO−fulvestrant)).

[2] = test system: CYP3A4; assay: CYP3A4 induction potential for ADME profile evaluation (CYP3A4 mRNA by RT-PCR in primary human hepatocytes); format: in vitro ADME; details: for CYP3A4 induction Emax (%): approximately 48 hours, 0.3-10 μM, relative to 10 μM rifampicin
Description: Such test is based, for example, on the quantification of CYP3A4 mRNA induction performed by RT-PCR analysis. Said % Emax may be calculated as detailed in the illustrative part under the following formula:
[formula] • ECompound: relative fold mRNA expression following treatment with test compound, • EPositive control: relative fold mRNA expression following reference inducer i.e., 10 μM rifampicin, • EVehicle control: relative fold mRNA expression following vehicle treatment i.e., 0.1% DMSO, and • E is the efficiency of the quantitative PCR.
Said test evaluates the potential induction effect of the tested compounds on CYP3A4 gene expression in primary cultures of human hepatocytes from one or two donors with established concentration-dependent response to the reference inducer, rifampicin.
Before seeding, cell viability was estimated using the Trypan blue dye exclusion test. Hepatocytes were seeded on collagen I-coated 96-well plates at a density of 70 000 cells/well in 100 μL of plating medium for at least 4 hours under a humidified atmosphere of CO2/air (5%/95%), at 37° C. After the cell attachment period, the plating medium was removed, and the hepatocytes were treated daily for 2 consecutive days (approximately 48 hours), with 100 μL per well of fresh culture medium containing either the vehicle control (0.1% DMSO) or the investigated compounds at four concentrations 0.3, 1, 3 and 10 μM, or rifampicin, the reference inducer at 10 μM. All incubations were performed in duplicates.
Ten mM stock solutions of the different compounds were diluted to obtain 0.3, 1 and 3 mM daughter solutions. The day of the experiment, stock solutions were diluted 1000-fold in the incubation/culture medium to achieve final concentrations of 0.3, 1, 3 and 10 μM.
After the 48-hour incubation period with the test compounds, the cell culture medium was removed, and the cells were lysed to release the RNA for CYP3A4 gene expression assessment. Quantification of CYP3A4 mRNA induction was performed by RT-PCR analysis.
Total RNA was extracted from hepatocytes using the King Fisher™ Flex Purification System with the MagMAX mirVana Total RNA Isolation kit (Thermo Fisher Scientific, USA). RNA was quantified by fluorimetry using the Quantifluor RNA System (Promega, USA) and cDNAs were synthesized from […] total RNA using the iScript Reverse Transcription Supermix for RT-qPCR from Biorad (France) at 42° C. for 30 min. cDNA samples were then diluted in water (1:5) and 5 μL of each sample was used for real-time PCR amplification by using the SYBR Green kit from Biorad (France). The following program was used: a denaturation step at 95° C. for 30 sec, and 40 cycles of PCR (denaturation, 95° C., 10 sec and annealing and extension, 58° C., 1 min). In all cases, the quality of the PCR product was assessed by monitoring a fusion step at the end of the run. Human forward and reverse primer sequences used were: 5′-CCT-GGC-ACC-CAG-CAC-AAT-3′ and 5′-GGG-CCG GAC-TCG-TCA-TAC-3′ for actin, 5′-CAC-AAA-CG-GAG-GCC-TTT-TG-3′ and 5′-ATC-CAT-GCT-GTA-GGC-CCC-AA-3′ for CYP3A4.
Cq (quantification cycle) values were determined using a multi-variable, non-linear regression model to individual well traces and then using this model an optimal Cq value was computed. Cq values are inversely proportional to the amount of target nucleic acid in the sample (i.e., lowest Cq level corresponds to the greatest amount of target nucleic acid in the sample). Cq of reference gene (in this study human actin) was also used as positive control of quantitative PCR.
The extent of induction or % of Emax, resulting from treatment with test compounds was calculated under the following formula: […]

Row | Compound | % Degradation At 0.3 μM [1] [%] | CYP3A4 induction Emax (%) [2] [%] | CYP3A4 induction (in words) ([2]; rating based on % Emax relative to rifampicin)
1 | Cl.O=C(O)c1ccc2c(c1)CCCC(c1cccc(F)c1Cl)=C2c1ccc(CC2CCN(CCCF)C2)cc1 (single isomer, unassigned; isomer 1) [Compound 21, 8-(2-chloro-3-fluorophenyl)-9-(4-((1-(3-fluoropropyl)pyrrolidin-3-yl)methyl)phenyl)-6,7-dihydro-5H-benzo[7]annulene-3-carboxylic acid hydrochloride, Isomer 1] | 87 | 42 | –
2 | Cc1c(C2=C(c3ccc(CC4CCN(CCCF)C4)cc3)c3ccc(C(=O)O)cc3CCC2)cccc1C(F)(F)F.Cl (single isomer, unassigned; isomer 1) [Compound 12, 9-(4-((1-(3-fluoropropyl)pyrrolidin-3-yl)methyl)phenyl)-8-(2-methyl-3-(trifluoromethyl)phenyl)-6,7-dihydro-5H-benzo[7]annulene-3-carboxylic acid hydrochloride, Isomer 1] | 90 | 34 | –
3 | O=C(O)c1ccc2c(c1)CCCC(c1ccc(Cl)cc1Cl)=C2c1ccc(C[C@H]2CCN(CCCF)C2)cc1 [Compound 1, 8-(2,4-dichlorophenyl)-9-(4-((1-(3-fluoropropyl)pyrrolidin-3-yl)methyl)phenyl)-6,7-dihydro-5H-benzo[7]annulene-3-carboxylic acid, (S) Isomer] | 85 | 7 | no CYP3A4 induction
4 | O=C(O)c1ccc2c(c1)CCCC(c1ccc(Cl)cc1Cl)=C2c1ccc(O[C@H]2CCN(CCCF)C2)cc1 [(C1), reference compound] | – | 93 | –
5 | Cc1c(Cl)cccc1C1=C(c2ccc(CC3CCN(CCC(F)F)C3)cc2)c2ccc(C(=O)O)cc2CCC1.Cl (single isomer, unassigned; isomer 1) [Compound 6, 8-(3-chloro-2-methylphenyl)-9-(4-((1-(3,3-difluoropropyl)pyrrolidin-3-yl)methyl)phenyl)-6,7-dihydro-5H-benzo[7]annulene-3-carboxylic acid hydrochloride, Isomer 1] | 81 | 8 | –
6 | Cl.O=C(O)c1ccc2c(c1)CCCC(c1cccc(Cl)c1C(F)(F)F)=C2c1ccc(CC2CCN(CCCF)C2)cc1 (single isomer, unassigned; isomer 1) [Compound 13, 8-(3-chloro-2-(trifluoromethyl)phenyl)-9-(4-((1-(3-fluoropropyl)pyrrolidin-3-yl)methyl)phenyl)-6,7-dihydro-5H-benzo[7]annulene-3-carboxylic acid hydrochloride, Isomer 1] | 90 | 26 | –
7 | Cc1cc(F)ccc1C1=C(c2ccc(CC3CCN(CCC(F)F)C3)cc2)c2ccc(C(=O)O)cc2CCC1.Cl (single isomer, unassigned; isomer 1) [Compound 4, 9-(4-((1-(3,3-difluoropropyl)pyrrolidin-3-yl)methyl)phenyl)-8-(4-fluoro-2-methylphenyl)-6,7-dihydro-5H-benzo[7]annulene-3-carboxylic acid hydrochloride, Isomer 1] | 83 | 30 | –
8 | Cl.O=C(O)c1ccc2c(c1)CCCC(c1ccc(F)cc1C(F)(F)F)=C2c1ccc(CC2CCN(CCC(F)F)C2)cc1 (single isomer, unassigned; isomer 1) [Compound 5, 9-(4-((1-(3,3-difluoropropyl)pyrrolidin-3-yl)methyl)phenyl)-8-(4-fluoro-2-(trifluoromethyl)phenyl)-6,7-dihydro-5H-benzo[7]annulene-3-carboxylic acid hydrochloride, Isomer 1] | 80 | 13 | –
9 | CC1(C)CCC(C2=C(c3ccc(CC4CCN(CCCF)C4)cc3)c3ccc(C(=O)O)cc3CCC2)CC1.Cl (single isomer, unassigned; isomer 1) [Compound 3, 8-(4,4-dimethylcyclohexyl)-9-(4-((1-(3-fluoropropyl)pyrrolidin-3-yl)methyl)phenyl)-6,7-dihydro-5H-benzo[7]annulene-3-carboxylic acid, Isomer 1] | 85 | 8 | –
10 | Cc1cccc(C2=C(c3ccc(CC4CCN(CCCF)C4)cc3)c3ccc(C(=O)O)cc3CCC2)c1C(F)(F)F (single isomer, unassigned; isomer 1) [Compound 30, 9-(4-((1-(3-fluoropropyl)pyrrolidin-3-yl)methyl)phenyl)-8-(3-methyl-2-(trifluoromethyl)phenyl)-6,7-dihydro-5H-benzo[7]annulene-3-carboxylic acid, Isomer 1] | 85 | 15 | –
11 | CC1(C)CC=C(C2=C(c3ccc(CC4CCN(CCCF)C4)cc3)c3ccc(C(=O)O)cc3CCC2)CC1.Cl (single isomer, unassigned; isomer 1) [Compound 11, 8-(4,4-dimethylcyclohex-1-en-1-yl)-9-(4-((1-(3-fluoropropyl)pyrrolidin-3-yl)methyl)phenyl)-6,7-dihydro-5H-benzo[7]annulene-3-carboxylic acid hydrochloride, Isomer 1] | 90 | 11 | –
